Reference: article PMC7932537, “Quantitative profiling of protease specificity” (PLoS Computational Biology, 2021)

Tests used:
MMP-2 = biological target: T1, MMP-2 (Homo sapiens, UniProt P08253); experiment: K(obs) of individual phage substrates (set of 1369); type: biochemical; conditions: MMP2
T1 sequence (P08253 110-660): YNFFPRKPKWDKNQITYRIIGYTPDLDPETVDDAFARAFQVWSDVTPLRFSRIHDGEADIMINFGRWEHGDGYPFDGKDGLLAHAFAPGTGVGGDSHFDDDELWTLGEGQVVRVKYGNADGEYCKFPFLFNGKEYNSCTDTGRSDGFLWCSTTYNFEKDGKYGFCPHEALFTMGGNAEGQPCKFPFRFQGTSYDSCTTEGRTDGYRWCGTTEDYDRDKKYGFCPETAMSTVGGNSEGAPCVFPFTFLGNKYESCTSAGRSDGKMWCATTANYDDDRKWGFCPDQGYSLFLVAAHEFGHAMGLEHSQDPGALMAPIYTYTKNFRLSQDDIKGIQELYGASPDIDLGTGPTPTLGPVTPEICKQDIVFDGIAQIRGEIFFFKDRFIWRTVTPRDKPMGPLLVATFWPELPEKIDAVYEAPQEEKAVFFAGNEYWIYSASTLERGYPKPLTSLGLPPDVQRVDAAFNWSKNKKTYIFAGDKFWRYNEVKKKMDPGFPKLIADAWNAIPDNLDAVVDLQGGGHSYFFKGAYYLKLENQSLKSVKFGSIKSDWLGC

MMP-9 = MMP-9 (Homo sapiens, UniProt P14780); experiment: as above; type: biochemical; conditions: MMP9, individual phage substrates, set of 1369 peptides
Chain of MMP-9 (P14780 94-707): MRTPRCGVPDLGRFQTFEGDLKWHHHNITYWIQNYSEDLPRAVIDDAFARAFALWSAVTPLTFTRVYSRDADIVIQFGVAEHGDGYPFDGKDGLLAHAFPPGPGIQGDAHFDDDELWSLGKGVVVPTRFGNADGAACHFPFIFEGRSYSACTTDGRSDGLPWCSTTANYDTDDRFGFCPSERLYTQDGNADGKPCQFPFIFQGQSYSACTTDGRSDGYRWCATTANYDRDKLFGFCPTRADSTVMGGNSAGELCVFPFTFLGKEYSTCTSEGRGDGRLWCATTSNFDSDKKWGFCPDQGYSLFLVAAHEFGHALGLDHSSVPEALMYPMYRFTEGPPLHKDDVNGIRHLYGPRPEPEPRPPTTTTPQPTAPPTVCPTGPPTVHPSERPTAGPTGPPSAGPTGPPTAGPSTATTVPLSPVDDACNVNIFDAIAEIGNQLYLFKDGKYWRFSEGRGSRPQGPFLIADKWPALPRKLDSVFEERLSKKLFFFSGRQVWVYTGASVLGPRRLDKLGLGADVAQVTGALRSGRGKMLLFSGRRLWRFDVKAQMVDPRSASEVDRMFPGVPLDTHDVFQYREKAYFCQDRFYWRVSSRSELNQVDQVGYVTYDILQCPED

[1] = individual phage substrates, set of 1369 peptides, cleavage position marked by '-' in the sequence
[2] = '-' marks the cleavage position (P1-P1')
[3] = individual phage substrate from the set of 1369 peptides, cleavage position marked by the dash in the sequence
[4] = dash in sequence marks cleavage position

For SGARN-LMATA, the “Kobs” value (MMP-2; [1]) was 10866.7 M⁻¹ s⁻¹ and the “Kobs” value (MMP-9; [2]) was 12792.1 M⁻¹ s⁻¹.
In the case of APVYA-LTASG, the “Kobs” value (MMP-2; [1]) is reported as 6131.32 M⁻¹ s⁻¹ and the “Kobs” value (MMP-9; [2]) is reported as 12792.1 M⁻¹ s⁻¹.
For EQLAN-MTASG, the “Kobs” value (MMP-2; [1]) was 7386.83 M⁻¹ s⁻¹ and the “Kobs” value (MMP-9; [2]) was 386.839 M⁻¹ s⁻¹.
For SGLLN-MYITA, the “Kobs” value (MMP-2; [1]) was 0 M⁻¹ s⁻¹ and the “Kobs” value (MMP-9; [2]) was 0 M⁻¹ s⁻¹.
In the case of PDVFA-LTASG, the “Kobs” value (MMP-2; [1]) is reported as 3637.04 M⁻¹ s⁻¹ and the “Kobs” value (MMP-9; [2]) is reported as 6688.74 M⁻¹ s⁻¹.
ELYAS-LTASG was tested, and the “Kobs” value (MMP-2; [1]) was 12792.1 M⁻¹ s⁻¹ and the “Kobs” value (MMP-9; [2]) was 0 M⁻¹ s⁻¹.
With GQVFR-LITAS the “Kobs” value (MMP-2; [1]) was 0 M⁻¹ s⁻¹ and the “Kobs” value (MMP-9; [2]) was 323.705 M⁻¹ s⁻¹.
In the case of EVTMW-LTASG, the “Kobs” value (MMP-2; [1]) is reported as 551.253 M⁻¹ s⁻¹ and the “Kobs” value (MMP-9; [2]) is reported as 951.362 M⁻¹ s⁻¹.
RYPVN-MTASG was tested, and the “Kobs” value (MMP-2; [1]) was 6688.74 M⁻¹ s⁻¹ and the “Kobs” value (MMP-9; [2]) was 5090.5 M⁻¹ s⁻¹.
For SGPQA-VVKTA, the “Kobs” value (MMP-2; [3]) was 1071.29 M⁻¹ s⁻¹ and the “Kobs” value (MMP-9; [4]) was 517.582 M⁻¹ s⁻¹.
In the case of GFAKH-LLTAS, the “Kobs” value (MMP-2; [3]) is reported as 56.119 M⁻¹ s⁻¹ and the “Kobs” value (MMP-9; [4]) is reported as 201.585 M⁻¹ s⁻¹.
With GVMMQ-LVTAS the “Kobs” value (MMP-2; [1]) was 0 M⁻¹ s⁻¹ and the “Kobs” value (MMP-9; [2]) was 0 M⁻¹ s⁻¹.
With DVAFH-LTASG the “Kobs” value (MMP-2; [1]) was 1925.41 M⁻¹ s⁻¹ and the “Kobs” value (MMP-9; [2]) was 1283.43 M⁻¹ s⁻¹.
In the case of VAISR-LTASG, the “Kobs” value (MMP-2; [3]) is reported as 12792.1 M⁻¹ s⁻¹ and the “Kobs” value (MMP-9; [4]) is reported as 113.394 M⁻¹ s⁻¹.
With VYSAY-LTASG the “Kobs” value (MMP-2; [3]) was 8941.32 M⁻¹ s⁻¹ and the “Kobs” value (MMP-9; [4]) was 142.481 M⁻¹ s⁻¹.
WLYAH-YTASG was tested, and the “Kobs” value (MMP-2; [3]) was 1816.46 M⁻¹ s⁻¹ and the “Kobs” value (MMP-9; [4]) was 113.394 M⁻¹ s⁻¹.
For GGSGA-LREKV, the “Kobs” value (MMP-2; [3]) was 201.585 M⁻¹ s⁻¹ and the “Kobs” value (MMP-9; [4]) was 292.668 M⁻¹ s⁻¹.
VHAVW-LTASG was tested, and the “Kobs” value (MMP-2; [1]) was 12792.1 M⁻¹ s⁻¹ and the “Kobs” value (MMP-9; [2]) was 12792.1 M⁻¹ s⁻¹.
For SGPYN-LRGTA, the “Kobs” value (MMP-2; [1]) was 12792.1 M⁻¹ s⁻¹ and the “Kobs” value (MMP-9; [2]) was 12792.1 M⁻¹ s⁻¹.
In the case of KMPRW-ITASG, the “Kobs” value (MMP-2; [3]) is reported as 6131.32 M⁻¹ s⁻¹ and the “Kobs” value (MMP-9; [4]) is reported as 9740.44 M⁻¹ s⁻¹.
With GVPQW-IHTAS the “Kobs” value (MMP-2; [1]) was 4335.13 M⁻¹ s⁻¹ and the “Kobs” value (MMP-9; [2]) was 5889.62 M⁻¹ s⁻¹.
For GKVHQ-MLTAS, the “Kobs” value (MMP-2; [1]) was 0 M⁻¹ s⁻¹ and the “Kobs” value (MMP-9; [2]) was 27.918 M⁻¹ s⁻¹.
In the case of SGVFN-LAFTA, the “Kobs” value (MMP-2; [1]) is reported as 912.511 M⁻¹ s⁻¹ and the “Kobs” value (MMP-9; [2]) is reported as 201.585 M⁻¹ s⁻¹.
In the case of ARVGV-LTASG, the “Kobs” value (MMP-2; [3]) is reported as 84.609 M⁻¹ s⁻¹ and the “Kobs” value (MMP-9; [4]) is reported as 0 M⁻¹ s⁻¹.
For GRVHR-LSTAS, the “Kobs” value (MMP-2; [1]) was 0 M⁻¹ s⁻¹ and the “Kobs” value (MMP-9; [2]) was 0 M⁻¹ s⁻¹.
GCLMA-LTTAS was tested, and the “Kobs” value (MMP-2; [1]) was 6131.32 M⁻¹ s⁻¹ and the “Kobs” value (MMP-9; [2]) was 2837.92 M⁻¹ s⁻¹.
For GQPAH-LSTAS, the “Kobs” value (MMP-2; [3]) was 10866.7 M⁻¹ s⁻¹ and the “Kobs” value (MMP-9; [4]) was 2761.81 M⁻¹ s⁻¹.
With HVLQN-LTASG the “Kobs” value (MMP-2; [1]) was 12792.1 M⁻¹ s⁻¹ and the “Kobs” value (MMP-9; [2]) was 201.585 M⁻¹ s⁻¹.
In the case of SGPSD-LHATA, the “Kobs” value (MMP-2; [1]) is reported as 12792.1 M⁻¹ s⁻¹ and the “Kobs” value (MMP-9; [2]) is reported as 12792.1 M⁻¹ s⁻¹.
In the case of VDILH-LTASG, the “Kobs” value (MMP-2; [1]) is reported as 3438.54 M⁻¹ s⁻¹ and the “Kobs” value (MMP-9; [2]) is reported as 551.253 M⁻¹ s⁻¹.
GRPMN-LRTAS was tested, and the “Kobs” value (MMP-2; [1]) was 10866.7 M⁻¹ s⁻¹ and the “Kobs” value (MMP-9; [2]) was 12792.1 M⁻¹ s⁻¹.
For RRTAW-LTASG, the “Kobs” value (MMP-2; [1]) was 8321.48 M⁻¹ s⁻¹ and the “Kobs” value (MMP-9; [2]) was 1373.05 M⁻¹ s⁻¹.
SLPAH-ITASG was tested, and the “Kobs” value (MMP-2; [3]) was 12792.1 M⁻¹ s⁻¹ and the “Kobs” value (MMP-9; [4]) was 5461.43 M⁻¹ s⁻¹.
TPVGW-MTASG was tested, and the “Kobs” value (MMP-2; [1]) was 12792.1 M⁻¹ s⁻¹ and the “Kobs” value (MMP-9; [2]) was 5269.78 M⁻¹ s⁻¹.
In the case of GGSGR-LNMRL, the “Kobs” value (MMP-2; [1]) is reported as 0 M⁻¹ s⁻¹ and the “Kobs” value (MMP-9; [2]) is reported as 0 M⁻¹ s⁻¹.
In the case of GQPFA-LSTAS, the “Kobs” value (MMP-2; [1]) is reported as 12792.1 M⁻¹ s⁻¹ and the “Kobs” value (MMP-9; [2]) is reported as 12792.1 M⁻¹ s⁻¹.
For SGPMG-MRNTA, the “Kobs” value (MMP-2; [1]) was 5667.28 M⁻¹ s⁻¹ and the “Kobs” value (MMP-9; [2]) was 5889.62 M⁻¹ s⁻¹.
With GSGAW-LKKIT the “Kobs” value (MMP-2; [1]) was 0 M⁻¹ s⁻¹ and the “Kobs” value (MMP-9; [2]) was 0 M⁻¹ s⁻¹.
In the case of SGINM-LTLTA, the “Kobs” value (MMP-2; [1]) is reported as 0 M⁻¹ s⁻¹ and the “Kobs” value (MMP-9; [2]) is reported as 0 M⁻¹ s⁻¹.
